Where two headings read alike, the source gives them in different places. *1 amine or outer side, *2 acyl side, *3 side chain or, on linkers, in order; H or OH if unused. Where a SMILES comes first, the peptide text is derived from it. Bridges are numbered along the chain shown (N, C = ends). [ ]: non-standard residue; d: D form. The star is where a group is joined. X14 = NC(=O)[C@H](CCCCNC(=O)CN1CCN2CCN3CCN(CC1)CC(=O)[O][In]([O]C(=O)C2)[O]C(=O)C3)NC(=O)CCC(=O)NCCCOCCOCCOCCCN*; X27 = O=C1CN2CCN3CCN(CC(=O)*)CCN(CC2)CC(=O)[O][Eu]([O]1)[O]C(=O)C3; NH(1-deoxy-D-glucityl) = OC[C@@H](O)[C@@H](O)[C@H](O)[C@@H](O)CN*; DOTA = O=C(O)CN1CCN(CC(=O)O)CCN(CC(=O)*)CCN(CC(=O)O)CC1; Trp(5-Cl) = N[C@@H](Cc1c[nH]c2ccc(Cl)cc12)C(=O)O; Pyridine(2,6-diCH2) = c1cc(C[*:1])nc(C[*:2])c1; Pro(4R-NH2) = N[C@H]1CN[C@H](C(=O)O)C1; 1Nal = N[C@@H](Cc1cccc2ccccc12)C(=O)O; mXylylene = c1cc(C[*:1])cc(C[*:2])c1; Hyp = O=C(O)[C@@H]1C[C@@H](O)CN1; X1 = O=C(CN1CCC(N[*:1])CC1)[*:2]; Cit = NC(=O)NCCC[C@H](N)C(=O)O; Suc = O=C(CCC(=O)[*:2])[*:1]; Tle = CC(C)(C)[C@H](N)C(=O)O; Ac6c = NC1(C(=O)O)CCCCC1; Api = NC1(C(=O)O)CCNCC1; Thp = NC1(C(=O)O)CCOCC1; Aib = CC(C)(N)C(=O)O
Molecular target: T1, GIPR (CHO-K1-hGIPR cells) (Homo sapiens, UniProt P48546)
T1 construct: host or cells: CHO-K1
T1 sequence (P48546 22-466): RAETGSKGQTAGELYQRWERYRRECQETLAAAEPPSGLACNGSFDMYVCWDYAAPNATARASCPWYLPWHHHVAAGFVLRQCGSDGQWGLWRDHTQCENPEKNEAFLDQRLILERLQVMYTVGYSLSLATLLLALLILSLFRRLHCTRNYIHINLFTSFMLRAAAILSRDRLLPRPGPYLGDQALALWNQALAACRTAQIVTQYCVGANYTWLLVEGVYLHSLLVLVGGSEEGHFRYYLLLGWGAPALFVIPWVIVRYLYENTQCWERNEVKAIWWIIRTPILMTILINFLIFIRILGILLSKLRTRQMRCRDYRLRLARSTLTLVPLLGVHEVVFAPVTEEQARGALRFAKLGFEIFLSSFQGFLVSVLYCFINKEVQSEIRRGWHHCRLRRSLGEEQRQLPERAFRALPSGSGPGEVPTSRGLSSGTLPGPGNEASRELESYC
Assay: FACS binding assay
Procedure, shortened: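 CHO-K1 cells stably expressing human GIPR were detached with Accutase, suspended at 500.000 cells per mL in PBS with 1% FCS, and washed ice-cold. Bound peptide was detected with 1 μg/mL APC-streptavidin for 30 min on ice.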

[1] = competition with 20 nM GIP-057, 4° C., 1 hour, read-out: pIC50 Category (converted)
[2] = competition with 20 nM GIP-057, 4° C. for 1 hour, read-out: pIC50 Category (converted)

| IC50 [1] [nM] | IC50 [2] [nM] | SMILES | other results |
| --- | --- | --- | --- |
| – | – | CC[C@H](C)[C@@H]1NC(=O)[C@H](CC(C)C)NC(=O)C2(CCOCC2)NC(=O)[C@@H](NC(=O)[C@@H](CC(C)C)NC(=O)[C@H](CCC(=O)O)NC(=O)[C@@H]2C[C@@H](O)CN2C(=O)[C@H](Cc2c[nH]c3ccc(Cl)cc23)NC(=O)[C@H](Cc2c[nH]c3ccccc23)NC(=O)[C@H](CC(=O)O)NC(=O)CN2CCC(NC(=O)[C@@H](CCC(=O)NC[C@H](O)[C@@H](O)[C@H](O)[C@H](O)CO)NC(=O)CN3CCN4CCN5CCN(CC3)CC(=O)[O][Eu]([O]C(=O)C4)[O]C(=O)C5)CC2)CSCc2cccc(n2)CSC[C@@H](C(=O)NC2CCN(CC(=O)N[C@H](CCC(=O)NC[C@H](O)[C@@H](O)[C@H](O)[C@H](O)CO)C(N)=O)CC2)NC1=O [GIP-064, Europium-Complex of DOTA-glu(AGLU)-APAc-Asp-Trp-5Clw-Hyp-Glu-leu-[Cys(2Lut)-Thp-Leu-Ile-Cys]-APAc-glu(AGLU)-NH2] (X27-[dE](NH(1-deoxy-D-glucityl))[X1]DW[Trp(5-Cl)][Hyp]E[dL]C[Thp]LIC[X1][dE](NH(1-deoxy-D-glucityl))-NH2; linker 9-13 via Pyridine(2,6-diCH2)) | IC50 (pIC50 Category, competition with 20 nM GIP-057, 4° C., 1 hour): < 10 nM |
| < 10 | – | CC[C@H](C)[C@@H]1NC(=O)[C@H](CC(C)C)NC(=O)C2(CCN(C(=O)CN3CCN(CC(=O)O)CCN(CC(=O)O)CCN(CC(=O)O)CC3)CC2)NC(=O)[C@@H](NC(=O)[C@@H](CC(C)C)NC(=O)[C@H](CCC(=O)O)NC(=O)[C@@H]2C[C@@H](N)CN2C(=O)[C@H](Cc2c[nH]c3ccc(Cl)cc23)NC(=O)[C@H](Cc2c[nH]c3ccccc23)NC(=O)CCC(=O)O)CSCc2cccc(n2)CSC[C@@H](C(=O)NC2CCN(CC(=O)N[C@H](CCC(=O)NC[C@H](O)[C@@H](O)[C@H](O)[C@H](O)CO)C(N)=O)CC2)NC1=O [GIP-023, HO-Succinyl-Trp-5Clw-Tap-Glu-leu-[Cys(2Lut)-Apc(DOTA)-Leu-Ile-Cys]-APAc-glu(AGLU)-NH2] (Suc-W[Trp(5-Cl)][Pro(4R-NH2)]E[dL]C[Api](DOTA)LIC[X1][dE](NH(1-deoxy-D-glucityl))-NH2; linker 6-10 via Pyridine(2,6-diCH2)) | – |
| < 10 | – | CC(=O)N[C@@H](CC(=O)O)C(=O)N[C@@H](Cc1c[nH]c2ccccc12)C(=O)N[C@@H](Cc1c[nH]c2ccc(Cl)cc12)C(=O)N1C[C@H](O)C[C@H]1C(=O)N[C@@H](CCC(=O)O)C(=O)N[C@H](CC(C)C)C(=O)N[C@H]1CSCc2cccc(n2)CSC[C@@H](C(N)=O)NC(=O)[C@H](C(C)(C)C)NC(=O)[C@H](CC(C)C)NC(=O)C2(CCOCC2)NC1=O [GIP-238, Ac-Asp-Trp-5Clw-Hyp-Glu-leu-[Cys(2Lut)-Thp-Leu-Tle-Cys]-NH2] (Ac-DW[Trp(5-Cl)][Hyp]E[dL]C[Thp]L[Tle]C-NH2; linker 7-11 via Pyridine(2,6-diCH2)) | – |
| – | > 1000 | CC[C@H](C)[C@@H]1NC(=O)[C@H](CC(C)C)NC(=O)C(C)(C)NC(=O)[C@@H](NC(=O)[C@H](CCCNC(N)=O)NC(=O)[C@H](CCC(=O)O)NC(=O)[C@@H]2CCCN2C(=O)[C@H](Cc2cccc3ccccc23)NC(=O)[C@H](Cc2c[nH]c3ccccc23)NC(=O)[C@H](CC(=O)O)NC(C)=O)CSCc2cccc(c2)CSC[C@@H](C(N)=O)NC1=O [GIP-347, Ac-Asp-Trp-1Ni-Pro-Glu-Cit-[Cys(3MeBn)-Aib-Leu-Ile-Cys]-NH2] (Ac-DW[1Nal]PE[Cit]C[Aib]LIC-NH2; linker 7-11 via mXylylene) | – |
| – | 10 to 79.4 | CC[C@H](C)[C@@H]1NC(=O)[C@H](CC(C)C)NC(=O)[C@H](C)NC(=O)[C@@H](NC(=O)[C@H](CC(C)C)NC(=O)[C@H](CCC(=O)O)NC(=O)[C@@H]2CCCN2C(=O)[C@H](Cc2c[nH]c3ccccc23)NC(=O)[C@H](Cc2c[nH]c3ccccc23)NC(=O)CCC(=O)O)CSCc2cccc(n2)CSC[C@@H](C(N)=O)NC1=O [GIP-257, HO-Succinyl-Trp-Trp-Pro-Glu-Leu-[Cys(2Lut)-Ala-Leu-Ile-Cys]-NH2] (Suc-WWPELCALIC-NH2; linker 6-10 via Pyridine(2,6-diCH2)) | – |

| SMILES | IC50 [1] [nM] | IC50 [2] [nM] | other results |
| --- | --- | --- | --- |
| CC[C@H](C)[C@@H]1NC(=O)[C@H](CC(C)C)NC(=O)C2(CCCCC2)NC(=O)[C@@H](NC(=O)[C@@H](CC(C)C)NC(=O)[C@H](CCC(=O)O)NC(=O)[C@@H]2CCCN2C(=O)[C@H](Cc2cccc3ccccc23)NC(=O)[C@H](Cc2c[nH]c3ccccc23)NC(=O)[C@H](CC(=O)O)NC(C)=O)CSCc2cccc(c2)CSC[C@@H](C(=O)NCCCOCCOCCOCCCNC(=O)CCC(=O)N[C@@H](CCCCNC(=O)CN2CCN3CCN4CCN(CC2)CC(=O)[O][In]([O]C(=O)C3)[O]C(=O)C4)C(N)=O)NC1=O [GIP-166, Ac-Asp-Trp-1Ni-Pro-Glu-leu-[Cys(3MeBn)-Egz-Leu-Ile-Cys]-Ttds-Lys(InDOTA)-NH2] (Ac-DW[1Nal]PE[dL]C[Ac6c]LIC-X14; linker 7-11 via mXylylene) | < 10 | – | – |

Source: US20250296971A1, “GASTRIC INHIBITORY PEPTIDE RECEPTOR LIGANDS” (priority 2021, published 2025)
